Results from patent publication US20220249538A1, “TREATMENT AGENT FOR SEX HORMONE-INSENSITIVE GREB1-POSITIVE TUMORS” (OSAKA UNIVERSITY, priority 2019, published 2022).

Columns and labels:
Format in all cases: cell-based, human
HepG2 cells [1] = experiment: mRNA (real-time PCR) and protein (lysate probing) expression in HepG2 cells
Protocol: Using RNAiMAX (Life Technologies/Thermo Fisher Scientific), HepG2 cells, Huh6 cells, Hep3B cells, JHH7 cells, and SKMEL28 cells were each transfected with each siRNA (10 nm). In experiments, the cells were used from 48 to 120 hours after transfection.

HepG2 cells [2] = experiment: Three-dimensional Matrigel culture, area of spheres; settings: 3D Matrigel for 5 days
Protocol: Cells grown on a glass cover slip were fixed with PBS containing 4% (w/v) paraformaldehyde at room temperature for 10 minutes, and permeabilization treatment was performed in PBS containing 0.2% (w/v) Triton X-100 and 2 mg/ml BSA for 10 minutes. Further, cells grown by three-dimensional culture were fixed in PBS containing 4% (w/v) paraformaldehyde at room temperature for 30 minutes, and blocked in PBS containing 0.5% (w/v) Triton X-100 and 40 mg/ml BSA for 30 minutes. […]
Further, HepG2 cells transfected with control siRNA or siRNA (GREB1 #2 siRNA) were cultured in 3D Matrigel for 5 days, and the cultured cells were stained with phalloidin to measure the areas of spheres (n=20). […] The ratio of spheres having polarized lumens was calculated as a ratio of spheres having F-actin-positive central microlumen to the total spheres.
Further, HepG2 cells expressing GFP or GFP-GREB1 were transfected with control ASO or each of the above-described GREB1 ASOs, and cultured in three-dimensional Matrigel for 4 days. The cultured cells were stained with phalloidin and Hoechst33342, and the areas of spheres were calculated (n=50).

Smad2/3 = Smad2/3 immunostaining and immunoprecipitation in HepG2 cells
Protocol: HepG2 cells (100 mm diameter dish) were lysed with 400 μl of a cell lysis buffer (10 mM Tris-HCl [pH 7.4], 140 mM NaCl, 5 mM EDTA, 1% NP40, 25 mM NaF, […], and 10 mM PMSF). The resulting lysate was immunoprecipitated with anti-Smad2/3 antibody, and the immunoprecipitates were probed with predetermined antibodies.
Further, HepG2 cells transfected with control siRNA or GREB1 #2 siRNA were cultured in the presence or absence of 10 ng/mL of TGFβ for 30 minutes. The cultured cells were fixed, and immunostained with anti-Smad2/3 antibody (see c of FIG. 8). Further, cell lysates of the cultured cells were immunoprecipitated with anti-Smad2/3 antibody. Next, the resulting cell lysates (Input) and immunoprecipitates (IP) were reacted with anti-Smad4 antibody or anti-Smad2/3 antibody (see d of FIG. 8). In addition, the cell lysates of the cultured cells were reacted with anti-GREB1 antibody, anti-phosphorylated Smad2/3 (pSmad2/3) antibody, or anti-Smad2/3 antibody (see e of FIG. 8).
Lysates of HepG2 cells transfected with control siRNA or GREB1 #2 siRNA were immunoprecipitated with anti-Smad2/3 antibody. Next, the resulting cell lysates (input) and immunoprecipitates (IP) were reacted with anti-p300 antibody, anti-GREB1 antibody, or anti-Smad2/3 antibody (see e of FIG. 7). […]

[3] = test system: PAI-1 gene locus (exon 2); experiment: Chromatin immunoprecipitation with anti-acetylated histone 4 antibody, PAI-1 exon 2; settings: HepG2 cells; presence or absence of 10 ng/mL TGFβ for 30 minutes
Protocol: Confluent HepG2 cells in a 10 cm dish were stimulated in the presence or absence of 5 ng/ml of TGFβ1 for 3 hours. Thereafter, the cells were allowed to crosslink using 1% formaldehyde at room temperature for 10 minutes, and the crosslinking reaction was terminated with 0.125 M glycine. The cells were washed three times with cold PBS, and thereafter the cells were removed and collected. Further, the cells were sedimented by centrifugation, and lysed with a sodium dodecyl sulfate (SDS) lysis buffer (50 mM Tris/HCl [pH 8.0], 10 mM EDTA, and 0.5% SDS). The cell lysates were subjected to ultrasonication to shear DNA into DNA fragments having sizes of 200 to 1000 bp. Supernatant of the sheared chromatin was diluted with ChIP dilution buffer (16.7 mM Tris/HCl [pH 8.0], 167 mM NaCl, 1.2 mM EDTA, and 1.1% Triton X-100) containing a protease inhibitor and a phosphatase inhibitor, and precleared by adding salmon sperm DNA/protein A-agarose beads (Millipore, Billerica, Mass., USA). […]
Further, HepG2 cells transfected with control siRNA or GREB1 #2 siRNA were cultured in the presence or absence of 10 ng/mL of TGFβ for 30 minutes. […] Next, the exon 2 domain of PAI contained in the cell lysates (Input) and immunoprecipitates (IP) was analyzed by PCR using domain-specific primers.

GREB1 #2 siRNA: siRNA against human GREB1; sense 5′-CCUCCUACAAAGCAAUAUUTT-3′ (SEQ ID NO: 6), antisense SEQ ID NO: 7 (antisense AAUAUUGCUUUGUAGGAGGTT; chemistry not given here)
expression levels of PAI-1 and SNAIL2 (HepG2 cells [1]; HepG2/GFP cells, real-time PCR, n=3): increased | PAI-1 and SNAIL2 phenotypes of GREB1 knockdown (HepG2 cells [1]; HepG2/GFP-GREB1 cells (expression of GFP-GREB1)): restored | amounts of cleaved caspase 3 and PARP1 (HepG2 cells [1]; HepG2 cells, 0.1% FBS for 2 days, lysate probing): increased | expressions of β-catenin and Axin2 (HepG2 cells [1]; HepG2 cells, GREB1 knockdown, lysate probing): no effect | expressions of PRLR and XBP1 (ER signal target genes) (HepG2 cells [1]; HepG2 cells, GREB1 knockdown, real-time PCR): no effect | expression of cell cycle regulators cyclinA, cyclinB, phosphorylated histone H3 (HepG2 cells [1]; HepG2 cells, medium containing 1% FBS for 1 day, lysate probing): decreases | increases in mRNA levels of PAI-1 and SNAIL2 by knockdown of GREB1 (HepG2 cells [1]; HepG2 cells, presence or absence of TGFβ receptor inhibitor (ALK5 inhibitor)): TGFβ receptor signal dependent | expressions of DLK1, AFP, and PEG3 (HepG2 cells [1]; HepG2 cells, real-time PCR): significantly decreased | decrease in expression of AFP by knockdown of GREB1 (HepG2 cells [1]; Smad2/3 knockout HepG2 cells vs HepG2 cells, real-time PCR): restored | decrease in expression of DLK1 by knockdown of GREB1 (HepG2 cells [1]; effect of Smad2/3 knockout in HepG2 cells): no effect | ratio of spheres having polarized lumens (HepG2 cells [2]): increased | area of sphere (HepG2 cells [2]; phalloidin, n=20): reduced the area of sphere to half | TGFβ-dependent nuclear transport of Smad2/3, complex formation of Smad2/3 and Smad4, phosphorylation of Smad2/3 (Smad2/3; 10 ng/mL TGFβ for 30 minutes): no effect | binding of Smad2/3 to p300 (Smad2/3; anti-Smad2/3 immunoprecipitation): increased | amount of acetylated histone 4 in the PAI-1 gene locus (exon 2) [3]: increased
